“Also recorded” adds a separate entry of the source.
Legend:
[1] = system: ES-7 Ewing sarcoma cells (EWS-FLI1 Type 4); test: 72 h GI50 assay in ES-7; conditions: read-out: ES-7 EWS-FLI1 Type 4 GI50; 72 h growth inhibition
[2] = system: NR0B1 promoter (binding promoter of EWS-FLI1); test: NR0B1 promoter luciferase reporter assay in stably transfected TC-32 cells; assay type: cell-based; conditions: 12 h treatment
Excerpt: Full-length NR0B1 promoter sequence was PCR amplified using Q5 high-fidelity DNA polymerase (New England Biolabs, Ipswich, Mass.) from genomic DNA of TC-32 cells and cloned into the pGLUC-Basic 2 vector (New England Biolabs, Ipswich, Mass.). XhoI and KpnI restriction sites were incorporated into the primers. After restriction enzyme (New England Biolabs, Ipswich, Mass.) digest and purification by gel electrophoresis, the target amplicon was ligated into the pGLUC-Basic 2 vector using T4 DNA ligase (Thermo Fisher Scientific, Waltham, Mass.). Chemically competent TOP10 E. coli cells were used to propagate vectors under ampicillin selection (100 μg/mL) (Thermo Fisher Scientific, Waltham, Mass.). The resulting vectors were extracted and purified using GeneJET plasmid prep kit (Thermo Fisher Scientific, Waltham, Mass.). […]
Selected TC-32 cells, expressing either NR0B1 or CMV luciferase reporter vectors, were seeded in clear 96-well plates at a density of 10,000 cells/well. […] Lysates (80 μL) were transferred to a white luminescence plate. Luciferase substrate, either coelenterazine or D-luciferin (50 μL of 1× solution), for NR0B1 or CMV vectors, respectively, was added in a Glomax 96 microplate luminometer (Promega, Madison, Wis.) and luminescence was immediately measured. […] Luminescence results were normalized to cell viability.

DMS 114 cells = test: 72 h GI50 assay in DMS 114; conditions: read-out: DMS 114 GI50; 72 h growth inhibition
EWS-FLI1 mRNA = test: Relative mRNA expression (qRT-PCR) of EWS-FLI1 in TC-32 cells; assay type: cell-based; conditions: 6 and 12 h treatments at GI50
Procedure: (§1) TC-32 cells were seeded in 6-well plates at a density of 300,000 cells/well. […] After 6 and 12 h treatments media was removed. Cells were washed with DPBS and 500 μL of 0.05% Trypsin with 0.53 mM EDTA (Corning, Corning, N.Y.) was added. After a 2-3 min incubation, cells detached from the plate and 1 mL of fresh RPMI media was immediately added. Cells were collected in 1.5 mL tubes on ice and centrifuged to a pellet at 1200× g for 5 min. Supernatant was removed and cell pellets were lysed with 600 μL of RLT lysis buffer (Qiagen, Hilden, Germany). Lysates were centrifuged through QIAshredder inserts for complete cell disruption (Qiagen, Hilden, Germany). RNeasy mini spin columns were used to isolate pure RNA (Qiagen, Hilden, Germany). RNA concentrations were measured using NanoDrop 2000 Spectrometer (Thermo Fisher Scientific, Waltham, Mass.) and a 100 ng/μL stock solution was prepared. RNA (1 μg) was used to prepare cDNA with a MultiScribe reverse transcriptase (Thermo Fisher Scientific, Waltham, Mass.). qRT-PCR reactions were conducted using Maxima SYBR green Taq DNA Polymerase (Thermo Fisher Scientific, Waltham, Mass.). EpMotion5070 (Eppendorf, Hamburg, Germany) robot was used to mix reactions in 384 well plates and thermocycling was completed on a QuantStudio 7 Flex (Thermo Fisher Scientific, Waltham, Mass.). […]

[3] = system: RD-ES Ewing sarcoma cells (EWS-FLI1 Type 2); test: 72 h GI50 assay in RD-ES; conditions: read-out: RD-ES EWS-FLI1 Type 2 GI50; 72 h growth inhibition
[4] = system: 5838 Ewing sarcoma cells (EWS-ERG); test: 72 h GI50 assay in 5838; conditions: for GI50: read-out: 5838 Ewing Sarcoma EWS-ERG GI50, 72 h growth inhibition, 5838 cells; for Ratio of median GI50 Non-Ewing sarcoma cell lines (cf Table 3):5838: selectivity for 5838 cells
[5] = system: A-673 Ewing sarcoma cells (EWS-FLI1 Type 1); test: 72 h GI50 assay in A-673; conditions: read-out: A-673 EWS-FLI1 Type 1 GI50; 72 h growth inhibition
[6] = system: TC-32 (Ewing sarcoma, EWS-FLI1 Type 1) cell line; conditions: for TC-32 Ewing sarcoma EWS-FLI1 Type 1 GI50: 72 h growth inhibition, TC-32 cells; for GI50 ratio PC-3:TC-32: selectivity, GI50 in PC-3 over GI50 in TC-32
DU 145 cells = test: 72 h GI50 assay in DU 145; conditions: read-out: DU 145 GI50; 72 h growth inhibition
[7] = system: Ewing sarcoma cell lines (TC-32, 5838, RD-ES, TC-71, A-673, ES-2, ES-7, ES-8); test: Median GI50 in panel of Ewing sarcoma cell lines; conditions: for Ratio of Median GI50 non-Ewing sarcoma:Ewing sarcoma (Selectivity Index): median GI50 non-Ewing panel over Ewing panel; for GI50: read-out: Median GI50 in Ewing sarcoma cell lines, median over 8 Ewing sarcoma cell lines, 72 h; for Selectivity Index ratio Analogues:MTM (1): selectivity index relative to MTM (1)
NR0B1 mRNA = test: Relative mRNA expression (qRT-PCR) of NR0B1 in TC-32 cells; assay type: cell-based; conditions: 6 and 12 h treatments at GI50
Procedure: as §1

[8] = system: ES-2 Ewing sarcoma cells (EWS-FLI1 Type 3); test: 72 h GI50 assay in ES-2; conditions: read-out: ES-2 EWS-FLI1 Type 3 GI50; 72 h growth inhibition
[9] = system: VCaP prostate cancer cells (TMPRSS2-ERG); test: 72 h GI50 assay in VCaP; conditions: for GI50: read-out: VCaP Prostate Cancer TMPRSS2-ERG GI50, 72 h growth inhibition, VCaP cells; for Ratio of median GI50 Prostate cells lacking TMPRSS2-ERG:VCaP: selectivity for VCaP over other prostate cancer cell lines
CMV promoter = CMV promoter luciferase reporter assay in stably transfected TC-32 cells (non-specific control); assay type: cell-based; conditions: 12 h, treated up to 10 μM
Excerpt: Full-length NR0B1 promoter sequence was PCR amplified using Q5 high-fidelity DNA polymerase (New England Biolabs, Ipswich, Mass.) from genomic DNA of TC-32 cells and cloned into the pGLUC-Basic 2 vector (New England Biolabs, Ipswich, Mass.). XhoI and KpnI restriction sites were incorporated into the primers. After restriction enzyme (New England Biolabs, Ipswich, Mass.) digest and purification by gel electrophoresis, the target amplicon was ligated into the pGLUC-Basic 2 vector using T4 DNA ligase (Thermo Fisher Scientific, Waltham, Mass.). Chemically competent TOP10 E. coli cells were used to propagate vectors under ampicillin selection (100 μg/mL) (Thermo Fisher Scientific, Waltham, Mass.). The resulting vectors were extracted and purified using GeneJET plasmid prep kit (Thermo Fisher Scientific, Waltham, Mass.). The purified vector was transfected into TC-32 cells using lipofectamine 3000 (Thermo Fisher Scientific, Waltham, Mass.) with subsequent G418 selection (1 mg/mL) (VWR, Radnor, Pa.). Separately, TC-32 cells were transfected with pCMV-Red Firefly Vector (Thermo Fisher Scientific, Waltham, Mass.) with subsequent puromycin selection (0.1 mg/mL) (Sigma, St. Louis, Mo.) as a control.
Selected TC-32 cells, expressing either NR0B1 or CMV luciferase reporter vectors, were seeded in clear 96-well plates at a density of 10,000 cells/well. […] After a 12 h treatment, media was removed and cells were washed 3 times with DPBS (Thermo Fisher Scientific, Waltham, Mass.). Cells were directly lysed on a plate shaker for 30 min at room temperature using 100 μL of passive membrane lysis solution. Lysates (80 μL) were transferred to a white luminescence plate. Luciferase substrate, either coelenterazine or D-luciferin (50 μL of 1× solution), for NR0B1 or CMV vectors, respectively, was added in a Glomax 96 microplate luminometer (Promega, Madison, Wis.) and luminescence was immediately measured. Delay before and after injections were set to the default of 0.4 s and a 10 s integration time was used. All reagents used in this assay were from the dual luciferase reporter assay system (Promega, Madison, Wis.). Concurrently, an additional 96 well plate was seeded and treated under the exact same conditions to determine cell viability using resazurin assay. Luminescence results were normalized to cell viability.

Structure (SMILES)	GI50 [1] [nM]	NR0B1 promoter driven luciferase signal [2]	GI50 (DMS 114 cells) [nM]	EWS-FLI1 mRNA expression (EWS-FLI1 mRNA)	GI50 [3] [nM]	GI50 [4] [nM]	Ratio of median GI50 Non-Ewing sarcoma cell lines (cf Table 3):5838 [4]	GI50 [5] [nM]	TC-32 Ewing sarcoma EWS-FLI1 Type 1 GI50 [6] [nM]	GI50 ratio PC-3:TC-32 [6]	GI50 (DU 145 cells) [nM]	Ratio of Median GI50 non-Ewing sarcoma:Ewing sarcoma (Selectivity Index) [7]	GI50 [7] [nM]	Selectivity Index ratio Analogues:MTM (1) [7]	NR0B1 mRNA expression (NR0B1 mRNA)	GI50 [8] [nM]	GI50 [9] [nM]	Ratio of median GI50 Prostate cells lacking TMPRSS2-ERG:VCaP [9]	CMV promoter driven luciferase signal (CMV promoter)	also measured
COC(=O)C(Cc1c[nH]c2ccccc12)NC(=O)C(Cc1ccccc1)NC(=O)C(OC)C1Cc2cc3cc(OC4CC(OC5CC(O)C(O)C(C)O5)C(O)C(C)O4)c(C)c(O)c3c(O)c2C(=O)C1OC1CC(OC2CC(OC3CC(C)(O)C(O)C(C)O3)C(O)C(C)O2)C(O)C(C)O1 (stereo not shown) [Analogue 60, MTMSA-Phe-Trp]	46	decreased	1140	decreased	50	149	6.7	168	47	24.0	400	19.1	52	12.7	decreased	78	39	25.4	no effect at all; also recorded: did not decrease	CMV promoter driven luciferase signal (CMV promoter; listed as MTMSA-Phe-Trp (60)): Lack of effect
COC(=O)C(Cc1c[nH]c2ccccc12)NC(=O)C(Cc1c[nH]c2ccccc12)NC(=O)C(OC)C1Cc2cc3cc(OC4CC(OC5CC(O)C(O)C(C)O5)C(O)C(C)O4)c(C)c(O)c3c(O)c2C(=O)C1OC1CC(OC2CC(OC3CC(C)(O)C(O)C(C)O3)C(O)C(C)O2)C(O)C(C)O1 (stereo not shown) [Analogue 61, MTMSA-Trp-Trp]	48	decreased	1120	decreased	57	53	16.2	364	41	13.9	246	15.6	55	10.4	decreased	123	31	18.3	no effect at all; also recorded: did not decrease	CMV promoter driven luciferase signal (CMV promoter; listed as MTMSA-Trp-Trp (61)): Lack of effect

— patent publication US11224609B2, “Mithramycin derivatives having increased selectivity and anti-cancer activity” (University of Kentucky Research Foundation, priority 2017, dated 2022)
